In the series the target is T1, human CYP2A6 enzyme (cytochrome P450 2A6) (Homo sapiens, UniProt P11509).
T1 construct: purchased Life Technologies PV6140; host or cells: insect cells (baculosomes)
T1 sequence (P11509 1-494): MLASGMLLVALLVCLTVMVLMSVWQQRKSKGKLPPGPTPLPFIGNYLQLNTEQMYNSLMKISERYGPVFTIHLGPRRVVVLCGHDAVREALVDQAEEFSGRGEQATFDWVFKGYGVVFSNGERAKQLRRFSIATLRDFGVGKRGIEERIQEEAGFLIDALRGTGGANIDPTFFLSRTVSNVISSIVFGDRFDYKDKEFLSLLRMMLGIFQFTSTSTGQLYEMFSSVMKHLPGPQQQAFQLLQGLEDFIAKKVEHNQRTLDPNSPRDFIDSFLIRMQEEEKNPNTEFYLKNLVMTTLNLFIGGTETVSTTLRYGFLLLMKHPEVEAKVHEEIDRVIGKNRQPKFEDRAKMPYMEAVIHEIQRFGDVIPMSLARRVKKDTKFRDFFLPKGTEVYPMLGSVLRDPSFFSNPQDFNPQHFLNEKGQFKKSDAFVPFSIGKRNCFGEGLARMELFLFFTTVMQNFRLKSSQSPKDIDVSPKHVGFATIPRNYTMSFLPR
In words: P450 2A6 inhibition assay (Vivid CYP450 Screening Kit, baculosomes). The format is biochemical. The settings on record: for IC50: microsomes from insect cells expressing human CYP2A6, 10 min pre-incubation, 2 h reaction at room temperature, highest concentration in dose-response curves 40 μM, triplicates; for P450 2A6 inhibition activity (in words): screening at 10 μM followed by dose-response curve; for IC50 of P450 2A6 inhibition (in words): dose-response curve. The protocol: Cytochrome P450 2A6 (Cyp2A6) activity was determined using the Vivid CYP450 Screening Kit (Life Technologies, catalog #PV6140) according to the manufacturer’s instructions. Briefly, a master pre-mix containing baculosomes and regeneration system was prepared using 0.5× Vivid reaction buffer II. The test compounds were dissolved in dimethyl sulfoxide (DMSO) at a concentration of 100 mM. From the stock solutions, each compound was serially diluted in 0.5× Vivid reaction buffer II to make working stocks of 100 μM, 50 μM, 25 μM and so on up to 10 dilutions. It is essential to dilute the DMSO at least 1000-fold when making the working dilutions to prevent its interference with the enzyme activity. An initial high-throughput screening was performed at 10 μM concentration for each compound. For the dose-response curve determination, in a 96-well plate, 40 μL of the diluted solutions of each test compound were added to each well, followed by 50 μl of the master pre-mix, before incubation for 10 min at room temperature. A 10× mixture of Vivid substrate (reconstituted with acetonitrile) and NADP^+ was then prepared. At the end of the incubation period, 10 μL of this solution was added to each well to start the reaction. After 2 hours of incubation in the dark at room temperature, the plate was read at 415 nm on a plate reader (Synergy H1, Biotek). For a positive inhibition control, tranylcypromine (Sigma-Aldrich, cat. #P8511) was used at a final concentration of 100 μM. For a negative (no inhibitor) control, a 1:1000 dilution of pure DMSO in 0.5× Vivid reaction buffer was used. Each concentration in the dose-response curve was set up in triplicates, and each data point was the average of triplicate wells. The % inhibition was calculated using the following equation. %Inhibition=(1−X−B/A−B)*100 where X is the fluorescence observed in presence of the test compound; A is the fluorescence observed in the absence of an inhibitor (no inhibitor control); and B is the fluorescence observed for the positive control. For graphing purposes, percent inhibition vs. anti-log[drug concentration] was plotted. A logistic sigmoidal model was used to fit the data and obtain IC50 values using Graphpad Prism software.
The syntheses of compounds 1 to 7 [Figure 1] were accomplished using the synthetic Schemes 1 and 2. […] Nicotine-mimicking compounds containing imidazole or methyl substituted imidazole side chains with varied sizes of 1–3 carbon alkyl spacers at position 3 of the pyridine ring were synthesized using Scheme 1 (compounds 1, 4 and 7). Based on our previous findings that acetylenic substituents can interact with the P450 active site amino acids and lead to mechanism-based inhibition, triple bond in the form of propargyl ether was incorporated in a second series of compounds at positions 2, 3 or 4 of the pyridine ring as an ether linkage (compounds 3, 6 and 2, respectively). Positions 2 and 4 were used to investigate whether substituted compounds at those positions would show a difference in their inhibition activities compared to the 3-position substituted compound. A longer spacer in between the propargyl ether and the 4-position of the pyridine ring was introduced to investigate whether a greater flexibility in the positioning of the key functional groups (pyridine ring and the alkyne moiety) in the binding site would be achieved. The Vivid CYP450 Screening Kit (Life Technologies, catalog #PV6140) was used for the P450 2A6 inhibition assays. An initial high-throughput screening was performed at a 10 μM concentration followed by a dose-response curve determination.
The inhibition studies on our compounds were performed using a Vivid CYP2A6 Kit (Life Technologies, catalog #PV6140). This kit uses microsomes from insect cells stably expressing human CYP2A6 enzyme. […]

As usually defined, the IC50 is the concentration needed to halve the response being measured. In the case of `C#CCOCCCc1ccncc1` [Compound 5, 4-(3-(prop-2-yn-1-yloxy)propyl)pyridine], the IC50 is over 40 µM and the “P450 2A6 inhibition activity (in words)” value is “moderate inhibition activity”. `C#CCOc1ccncc1` [Compound 2, 4-(prop-2-yn-1-yloxy)pyridine]: the IC50 is over 40 µM and the “P450 2A6 inhibition activity (in words)” value was “much lower inhibition”.

`C#CCOCc1cccnc1` [Compound 6, 3-((prop-2-yn-1-yloxy)methyl)pyridine]: the “IC50 of P450 2A6 inhibition (in words)” value was “single digit micromolar” and the IC50 turned out to be 1 µM. `Cc1nccn1Cc1cccnc1` [Compound 7, 3-[(2-methyl-1H-imidazol-1-yl)methyl] pyridine]: the IC50 was over 40 µM and the “P450 2A6 inhibition activity (in words)” value is listed as “moderate inhibition activity”. On to `Cc1nccn1CCCc1cccnc1` [Compound 1], for which the “IC50 of P450 2A6 inhibition (in words)” value was “single digit micromolar” and the IC50 stood at 9.03 µM. Regarding `c1cncc(Cn2ccnc2)c1` [Compound 4, 3-((1H-imidazol-1-yl)methyl)pyridine], the “IC50 of P450 2A6 inhibition (in words)” value is “single digit micromolar” and the half-maximal inhibitory concentration (IC50) was 5.02 µM. For `C#CCOc1ccccn1` [Compound 3, 2-(prop-2-yn-1-yloxy)pyridine], the “P450 2A6 inhibition activity (in words)” value is reported as “did not inhibit”.

These data come from paper PMC8555909, “Identification of CYP 2A6 inhibitors in an effort to mitigate the harmful effects of the phytochemical nicotine” (Journal of cancer metastasis and treatment, 2021).
